# Source: BindingDB's records for doi:10.1021/acsmedchemlett.6b00315 (Ghent University, 2017)
# Legend:
# [1] = Inhibition of methicillin-resistant Staphylococcus aureus Mu50 TRAP assessed as potentiation of vancomycin-induced antibiofilm activity cotreated with vancomycin for 24 hrs
# [2] = Inhibition of methicillin-resistant Staphylococcus aureus Mu50 TRAP assessed as potentiation of vancomycin-induced antibiofilm activity treated for 4 hrs prior to vancomycin addition measured after 20 hrs
# [3] = Inhibition of methicillin-resistant Staphylococcus aureus Mu50 TRAP assessed as potentiation of vancomycin-induced antibiofilm activity cotreated with vancomycin for 24 hrs; remark: listed apart in the source
SMILES,EC50 [1] [µM],EC50 [2] [µM],EC50 [3] [µM]
O=C(NC[C@]1(O)CO[C@H](CNC(=O)c2ccncc2Cl)[C@H]1O)c1ccccc1,232,> 250,–
O=C(NC[C@H]1OC[C@H](O)[C@@H]1O)c1ccccc1Cl,4.99,11.4,–
O=C(NC[C@H]1OC[C@@](O)(CNC(=O)c2ccc(-c3ccccc3)cc2)[C@@H]1O)c1ccnnc1,45.4,8.54,–
O=C(NC[C@H]1OC[C@@](O)(CNC(=O)C2CCCCC2)[C@@H]1O)c1ccccc1Cl,–,9.56,34
O=C(NC[C@]1(O)CO[C@H](CNC(=O)c2ccccc2Cl)[C@H]1O)c1ccoc1,–,68.5,76.7
Cn1cncc1C(=O)NC[C@H]1OC[C@@](O)(CNC(=O)c2ccccc2)[C@@H]1O,–,46.7,58.2
O=C(NC[C@]1(O)CO[C@H](CNC(=O)c2cnccc2Cl)[C@H]1O)c1ccccc1,> 250,200,–
O=C(NC[C@]1(O)CO[C@H](CNC(=O)c2cccnc2Cl)[C@H]1O)c1ccccc1,> 250,> 250,–
Cc1ccc(C(=O)NC[C@]2(O)CO[C@H](CNC(=O)c3ccccc3Cl)[C@H]2O)cc1,–,79.7,41.9
O=C(NC[C@H]1OC[C@@](O)(CNCc2ccccc2)[C@@H]1O)c1ccccc1Cl,–,6.32,8.42
O=C(NC[C@H]1OC[C@@](O)(CNC(=O)c2ccccc2Cl)[C@@H]1O)c1ccccc1,15,5.58,–
O=C(NC[C@H]1OC[C@@](O)(CN2C(=O)c3ccccc3C2=O)[C@@H]1O)c1ccc(-c2ccccc2)cc1,–,24.7,12.1
O=C(NC[C@]1(O)CO[C@H](CNC(=O)c2ccccc2Cl)[C@H]1O)c1ccccc1F,62.2,48.6,–
O=C(NC[C@H]1OC[C@@](O)(CN2Cc3ccccc3C2=O)[C@@H]1O)c1ccccc1Cl,–,13.7,20.9
O=C(NC[C@]1(O)CO[C@H](CN2C(=O)c3ccccc3C2=O)[C@H]1O)c1ccccc1Cl,1.27,0.26,–
O=C(NC[C@]1(O)CO[C@H](CNC(=O)c2ccccc2Cl)[C@H]1O)c1ccccc1,7.98,0.39,–
O=C(NC[C@]1(O)CO[C@H](CN2C(=O)c3ccccc3C2=O)[C@H]1O)c1ccnnc1,11.4,5.85,–
[N-]=[N+]=NC[C@]1(O)CO[C@H](CNC(=O)c2ccccc2Cl)[C@H]1O,–,15.1,2.34
O=C(NC[C@H]1OC[C@@](O)(CN2C(=O)c3ccccc3C2=O)[C@@H]1O)c1ccccc1Cl,–,2.63,39
Cn1nccc1C(=O)NC[C@H]1OC[C@@](O)(CNC(=O)c2ccccc2)[C@@H]1O,–,29.3,23.5
O=C(OC[C@H]1OC(O)[C@@](O)(COC(=O)c2cc(O)c(O)c(O)c2)[C@@H]1O)c1cc(O)c(O)c(O)c1 (some centres undefined) [Hamamelitannin],–,146,165
CC(=O)NC[C@]1(O)CO[C@H](CNC(=O)c2ccccc2Cl)[C@H]1O,–,15.4,3.55
